Measured values: paper doi:10.1101/2023.03.24.534094v2 (biorxiv, 2023)
Like-named read-outs stand apart in the source and are kept apart here.

Legend:
BRD4 = BRD4 (Homo sapiens, UniProt O60885); assay: biochemical
CLK1 = CLK1 (Homo sapiens, UniProt P49759); assay: biochemical
FLT1 = FLT1 (Homo sapiens, UniProt P17948); assay: biochemical
GSK3B = GSK3B (Homo sapiens, UniProt P49841); assay: biochemical
PIM1 = PIM1 (Homo sapiens, UniProt P11309); assay: biochemical
MST1 = molecular target: T1, MST1 (Homo sapiens, UniProt Q13043); assay: biochemical; details: for ΔTm at 10 µM: read-out: dTm MST1
T1 sequence (Q13043 1-487): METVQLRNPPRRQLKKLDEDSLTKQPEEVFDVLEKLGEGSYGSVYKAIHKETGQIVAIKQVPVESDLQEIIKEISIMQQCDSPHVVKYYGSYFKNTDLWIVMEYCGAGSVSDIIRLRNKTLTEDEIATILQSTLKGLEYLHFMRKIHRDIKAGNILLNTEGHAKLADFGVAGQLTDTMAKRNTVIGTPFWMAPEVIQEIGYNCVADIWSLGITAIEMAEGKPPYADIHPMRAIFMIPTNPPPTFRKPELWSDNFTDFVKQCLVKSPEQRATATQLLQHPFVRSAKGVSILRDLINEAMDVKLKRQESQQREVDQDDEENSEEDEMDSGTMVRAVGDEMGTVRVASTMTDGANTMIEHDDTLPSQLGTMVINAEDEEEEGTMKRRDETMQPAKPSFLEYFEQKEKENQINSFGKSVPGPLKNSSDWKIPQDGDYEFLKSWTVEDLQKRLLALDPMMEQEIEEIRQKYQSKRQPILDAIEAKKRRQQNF

MST2 = molecular target: T2, MST2 (Homo sapiens, UniProt Q13188); assay: biochemical; details: for ΔTm at 10 µM: read-out: dTm MST2
T2 sequence (Q13188 1-491): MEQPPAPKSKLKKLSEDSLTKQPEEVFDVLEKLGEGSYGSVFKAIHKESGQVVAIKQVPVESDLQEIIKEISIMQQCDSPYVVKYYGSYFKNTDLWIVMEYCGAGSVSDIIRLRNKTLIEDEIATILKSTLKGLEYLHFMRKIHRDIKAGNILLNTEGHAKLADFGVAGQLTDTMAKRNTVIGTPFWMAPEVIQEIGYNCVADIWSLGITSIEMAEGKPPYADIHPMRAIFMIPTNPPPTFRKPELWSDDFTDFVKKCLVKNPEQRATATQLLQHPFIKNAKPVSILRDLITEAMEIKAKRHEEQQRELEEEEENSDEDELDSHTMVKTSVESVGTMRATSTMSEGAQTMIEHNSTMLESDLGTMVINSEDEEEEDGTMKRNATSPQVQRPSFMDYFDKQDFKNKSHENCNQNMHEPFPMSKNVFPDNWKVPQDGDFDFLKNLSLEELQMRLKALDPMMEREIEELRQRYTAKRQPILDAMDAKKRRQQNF

MST4 = MST4 (Homo sapiens, UniProt Q9P289); assay: biochemical; details: for ΔTm at 10 µM: read-out: dTm MST4
EpHB1 = molecular target: T3, EpHB1 (Homo sapiens, UniProt P54762); assay: NanoBRET target engagement; assay type: cell-based
T3 sequence (P54762 18-984): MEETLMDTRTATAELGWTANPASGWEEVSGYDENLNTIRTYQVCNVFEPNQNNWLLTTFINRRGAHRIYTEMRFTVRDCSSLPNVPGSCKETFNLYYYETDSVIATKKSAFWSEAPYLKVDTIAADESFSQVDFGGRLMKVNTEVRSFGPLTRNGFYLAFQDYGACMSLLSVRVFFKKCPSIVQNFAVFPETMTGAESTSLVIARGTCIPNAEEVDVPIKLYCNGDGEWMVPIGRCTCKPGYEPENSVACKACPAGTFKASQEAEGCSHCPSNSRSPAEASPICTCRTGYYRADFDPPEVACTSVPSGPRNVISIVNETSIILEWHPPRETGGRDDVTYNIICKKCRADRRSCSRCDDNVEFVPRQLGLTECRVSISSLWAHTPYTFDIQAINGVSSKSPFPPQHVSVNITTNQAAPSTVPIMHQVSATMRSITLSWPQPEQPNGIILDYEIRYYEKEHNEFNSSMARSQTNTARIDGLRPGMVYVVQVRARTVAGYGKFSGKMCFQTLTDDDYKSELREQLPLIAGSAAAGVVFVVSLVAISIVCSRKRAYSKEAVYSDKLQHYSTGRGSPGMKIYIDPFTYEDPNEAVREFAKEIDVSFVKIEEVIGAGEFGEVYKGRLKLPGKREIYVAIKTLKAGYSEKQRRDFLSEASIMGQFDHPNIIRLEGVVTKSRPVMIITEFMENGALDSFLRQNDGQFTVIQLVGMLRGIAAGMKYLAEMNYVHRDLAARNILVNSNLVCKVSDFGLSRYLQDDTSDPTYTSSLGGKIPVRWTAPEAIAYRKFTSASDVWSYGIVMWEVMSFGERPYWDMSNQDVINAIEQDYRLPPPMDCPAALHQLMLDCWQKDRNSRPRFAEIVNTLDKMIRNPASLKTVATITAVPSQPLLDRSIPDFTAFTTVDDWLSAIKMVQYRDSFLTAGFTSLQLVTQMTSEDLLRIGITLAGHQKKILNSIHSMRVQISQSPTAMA

SIK2 = SIK2 (Homo sapiens, UniProt Q9H0K1); assay: NanoBRET target engagement; assay type: cell-based; details: intact mode, HEK293T, 37 °C, 2 h, tracer displacement
SIK3 = SIK3 (Homo sapiens, UniProt Q9Y2K2); assay: NanoBRET target engagement; assay type: cell-based; details: intact mode, HEK293T, 37 °C, 2 h, tracer displacement
SIK1 = SIK1 (Homo sapiens, UniProt P57059); assay: NanoBRET target engagement; assay type: biochemical; details: lysed mode, HEK293T, tracer displacement
Chain of SIK1 (P57059 whole entry): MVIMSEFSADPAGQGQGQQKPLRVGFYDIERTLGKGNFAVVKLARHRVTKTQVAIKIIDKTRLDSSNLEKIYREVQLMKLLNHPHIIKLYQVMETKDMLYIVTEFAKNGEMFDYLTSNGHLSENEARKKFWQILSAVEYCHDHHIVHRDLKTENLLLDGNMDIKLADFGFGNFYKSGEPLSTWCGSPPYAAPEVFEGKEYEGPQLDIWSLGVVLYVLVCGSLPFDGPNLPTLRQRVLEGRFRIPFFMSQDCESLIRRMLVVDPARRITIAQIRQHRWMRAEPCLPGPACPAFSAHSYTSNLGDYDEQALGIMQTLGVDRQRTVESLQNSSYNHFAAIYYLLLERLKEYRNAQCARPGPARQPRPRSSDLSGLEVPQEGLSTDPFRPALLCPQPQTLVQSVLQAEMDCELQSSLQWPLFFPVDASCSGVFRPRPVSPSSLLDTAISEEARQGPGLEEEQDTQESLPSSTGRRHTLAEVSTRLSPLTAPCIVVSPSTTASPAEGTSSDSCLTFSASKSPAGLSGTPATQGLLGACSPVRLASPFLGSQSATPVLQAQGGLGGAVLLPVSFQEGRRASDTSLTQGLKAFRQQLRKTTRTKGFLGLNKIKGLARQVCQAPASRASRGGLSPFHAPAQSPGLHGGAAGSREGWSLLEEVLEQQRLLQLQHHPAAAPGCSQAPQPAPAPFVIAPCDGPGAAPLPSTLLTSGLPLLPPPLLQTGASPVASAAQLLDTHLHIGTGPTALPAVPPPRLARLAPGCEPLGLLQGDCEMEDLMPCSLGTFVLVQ

Chain of PIM1 (P11309 whole entry): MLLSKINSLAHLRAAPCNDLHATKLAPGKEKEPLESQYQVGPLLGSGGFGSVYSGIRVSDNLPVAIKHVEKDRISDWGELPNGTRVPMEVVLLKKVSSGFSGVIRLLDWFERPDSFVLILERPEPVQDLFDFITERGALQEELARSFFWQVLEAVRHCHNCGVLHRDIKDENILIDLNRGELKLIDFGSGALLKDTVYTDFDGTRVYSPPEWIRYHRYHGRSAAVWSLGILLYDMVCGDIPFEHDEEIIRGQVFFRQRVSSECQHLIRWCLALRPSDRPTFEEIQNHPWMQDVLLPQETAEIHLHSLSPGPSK
Chain of GSK3B (P49841 whole entry): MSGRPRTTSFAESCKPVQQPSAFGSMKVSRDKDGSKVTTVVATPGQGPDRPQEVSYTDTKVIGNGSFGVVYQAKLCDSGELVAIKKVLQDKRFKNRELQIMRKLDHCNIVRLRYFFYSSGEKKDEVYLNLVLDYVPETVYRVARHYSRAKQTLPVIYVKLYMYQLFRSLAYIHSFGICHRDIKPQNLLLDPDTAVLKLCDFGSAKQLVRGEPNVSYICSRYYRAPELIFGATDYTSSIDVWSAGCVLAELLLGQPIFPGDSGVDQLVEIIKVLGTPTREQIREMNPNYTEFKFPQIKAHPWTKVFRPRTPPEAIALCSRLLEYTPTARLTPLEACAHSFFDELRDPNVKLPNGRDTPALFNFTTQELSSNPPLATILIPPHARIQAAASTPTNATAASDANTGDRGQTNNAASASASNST
Chain of SIK2 (Q9H0K1 whole entry): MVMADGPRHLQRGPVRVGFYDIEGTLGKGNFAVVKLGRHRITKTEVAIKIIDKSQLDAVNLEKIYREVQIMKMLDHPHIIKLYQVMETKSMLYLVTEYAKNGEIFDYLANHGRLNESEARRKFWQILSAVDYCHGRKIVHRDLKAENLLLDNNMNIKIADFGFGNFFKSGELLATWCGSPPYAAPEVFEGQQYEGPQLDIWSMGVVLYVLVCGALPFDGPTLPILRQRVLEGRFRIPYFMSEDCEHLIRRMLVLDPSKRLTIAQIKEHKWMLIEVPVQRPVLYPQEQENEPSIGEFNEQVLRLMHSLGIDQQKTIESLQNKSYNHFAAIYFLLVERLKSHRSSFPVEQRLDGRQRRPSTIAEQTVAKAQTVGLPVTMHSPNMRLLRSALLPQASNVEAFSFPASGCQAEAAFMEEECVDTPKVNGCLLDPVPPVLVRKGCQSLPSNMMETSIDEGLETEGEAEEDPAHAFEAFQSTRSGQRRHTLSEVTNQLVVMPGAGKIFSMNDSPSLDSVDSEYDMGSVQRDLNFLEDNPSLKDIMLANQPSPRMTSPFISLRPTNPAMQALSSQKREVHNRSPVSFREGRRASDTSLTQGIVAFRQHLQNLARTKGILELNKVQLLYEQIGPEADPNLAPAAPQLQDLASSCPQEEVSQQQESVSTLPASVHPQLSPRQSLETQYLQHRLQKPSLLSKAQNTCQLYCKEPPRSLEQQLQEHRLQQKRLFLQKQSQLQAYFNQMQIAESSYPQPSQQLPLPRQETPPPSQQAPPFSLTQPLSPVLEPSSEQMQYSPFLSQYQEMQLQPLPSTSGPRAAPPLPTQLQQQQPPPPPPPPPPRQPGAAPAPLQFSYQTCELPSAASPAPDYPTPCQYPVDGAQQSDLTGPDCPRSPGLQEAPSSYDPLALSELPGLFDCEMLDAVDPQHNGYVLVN
Chain of MST4 (Q9P289 whole entry): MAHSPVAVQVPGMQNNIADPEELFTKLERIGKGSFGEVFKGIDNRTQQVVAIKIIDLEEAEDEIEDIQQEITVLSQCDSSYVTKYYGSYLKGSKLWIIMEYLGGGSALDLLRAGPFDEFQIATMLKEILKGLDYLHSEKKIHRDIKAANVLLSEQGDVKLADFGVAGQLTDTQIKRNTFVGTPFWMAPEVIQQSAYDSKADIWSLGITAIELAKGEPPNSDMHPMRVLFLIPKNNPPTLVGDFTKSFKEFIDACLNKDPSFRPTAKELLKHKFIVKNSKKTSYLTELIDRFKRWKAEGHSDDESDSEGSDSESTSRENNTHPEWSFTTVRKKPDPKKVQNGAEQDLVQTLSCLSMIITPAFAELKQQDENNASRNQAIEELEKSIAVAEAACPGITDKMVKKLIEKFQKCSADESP
Chain of FLT1 (P17948 whole entry): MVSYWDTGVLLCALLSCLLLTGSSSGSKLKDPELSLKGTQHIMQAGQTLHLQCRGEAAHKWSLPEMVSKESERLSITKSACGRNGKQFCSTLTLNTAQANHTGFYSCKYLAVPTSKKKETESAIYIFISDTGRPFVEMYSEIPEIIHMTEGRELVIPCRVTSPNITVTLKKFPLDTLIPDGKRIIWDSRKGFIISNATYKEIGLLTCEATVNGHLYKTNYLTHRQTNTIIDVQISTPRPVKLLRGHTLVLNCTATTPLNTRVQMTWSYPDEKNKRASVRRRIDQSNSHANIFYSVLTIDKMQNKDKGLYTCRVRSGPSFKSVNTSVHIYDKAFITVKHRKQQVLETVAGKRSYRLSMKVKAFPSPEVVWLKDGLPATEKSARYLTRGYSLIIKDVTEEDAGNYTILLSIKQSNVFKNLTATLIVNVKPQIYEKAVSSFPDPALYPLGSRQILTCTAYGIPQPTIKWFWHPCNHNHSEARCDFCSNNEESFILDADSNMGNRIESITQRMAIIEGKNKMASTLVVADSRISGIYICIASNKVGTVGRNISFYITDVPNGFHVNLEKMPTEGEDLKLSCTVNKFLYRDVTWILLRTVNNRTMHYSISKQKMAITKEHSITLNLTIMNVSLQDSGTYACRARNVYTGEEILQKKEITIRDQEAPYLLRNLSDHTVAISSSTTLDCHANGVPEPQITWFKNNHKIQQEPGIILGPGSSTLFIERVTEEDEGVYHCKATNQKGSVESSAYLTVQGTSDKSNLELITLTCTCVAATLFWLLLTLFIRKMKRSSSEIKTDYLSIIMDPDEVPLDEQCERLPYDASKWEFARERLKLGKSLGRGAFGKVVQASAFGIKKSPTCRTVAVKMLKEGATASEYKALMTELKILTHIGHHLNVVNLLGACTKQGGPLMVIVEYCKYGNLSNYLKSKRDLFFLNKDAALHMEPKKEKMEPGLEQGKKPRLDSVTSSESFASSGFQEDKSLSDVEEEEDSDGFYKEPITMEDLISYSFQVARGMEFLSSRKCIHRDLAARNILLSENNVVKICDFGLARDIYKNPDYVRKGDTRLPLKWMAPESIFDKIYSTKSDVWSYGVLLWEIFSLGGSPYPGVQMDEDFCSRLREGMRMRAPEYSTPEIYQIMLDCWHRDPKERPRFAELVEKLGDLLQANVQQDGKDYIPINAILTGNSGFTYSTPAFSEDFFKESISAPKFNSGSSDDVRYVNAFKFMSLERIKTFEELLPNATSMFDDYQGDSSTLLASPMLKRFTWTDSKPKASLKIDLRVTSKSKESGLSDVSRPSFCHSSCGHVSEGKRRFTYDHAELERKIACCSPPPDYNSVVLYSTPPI
Chain of CLK1 (P49759 whole entry): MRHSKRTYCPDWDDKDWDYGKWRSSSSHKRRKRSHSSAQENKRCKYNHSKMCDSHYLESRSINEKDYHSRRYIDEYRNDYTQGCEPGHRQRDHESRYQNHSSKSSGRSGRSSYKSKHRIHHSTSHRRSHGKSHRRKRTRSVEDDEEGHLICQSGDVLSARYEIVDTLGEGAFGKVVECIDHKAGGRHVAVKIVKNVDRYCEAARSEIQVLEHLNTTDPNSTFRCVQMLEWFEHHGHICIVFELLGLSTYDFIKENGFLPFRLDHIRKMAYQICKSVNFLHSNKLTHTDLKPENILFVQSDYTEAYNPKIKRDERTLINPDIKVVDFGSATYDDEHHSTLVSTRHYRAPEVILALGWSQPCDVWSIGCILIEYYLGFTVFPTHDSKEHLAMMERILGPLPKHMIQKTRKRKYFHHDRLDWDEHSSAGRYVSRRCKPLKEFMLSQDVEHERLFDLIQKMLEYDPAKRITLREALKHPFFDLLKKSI

`CNc1ncc2cc(-c3ccc(-c4cccc(C)n4)cc3Cl)c(=O)n(CC3OCC(N)CO3)c2n1` (stereo not shown) [compound 2, G-5555] was tested, and the “dTm G-5555 (2)” value (BRD4; 10 µM, binder) was -1.1 °C, the “dTm G-5555 (2)” value (CLK1; 10 µM, binder) was 0.1 °C and the “dTm G-5555 (2)” value (FLT1; 10 µM, binder) was 1.7 °C. For the same compound, the “dTm G-5555 (2)” value (GSK3B; 10 µM, binder) was 0.1 °C, the “dTm G-5555 (2)” value (PIM1; 10 µM, binder) was -1.6 °C and the “dTm MST1” value (MST1; 10 µM, binder) was 4.2 °C. The “dTm MST2” value (MST2; 10 µM, binder) was 5.0 °C and the “dTm MST4” value (MST4; 10 µM, binder) was 6.4 °C.

Work on `CNc1ncc2cc(-c3ccccc3Cl)c(=O)n(CCCCN)c2n1` [compound 4, 8-(4-Aminobutyl)-6-(2-chlorophenyl)-2-(methylamino)pyrido[2,3-d]pyrimidin-7(8H)-one] yielded an IC50 (EpHB1) of 78 ± 2 nM, an IC50 (SIK2) of 74 ± 2 nM and an IC50 (SIK3) of 25 ± 3 nM. It also gave an IC50 (SIK1) of 20 ± 7 nM, a ΔTm at 10 µM (BRD4; read-out: dTm MR21 (4)) of 0.1 °C and a ΔTm at 10 µM (CLK1; read-out: dTm MR21 (4)) of -1.2 °C. For the same compound, the ΔTm at 10 µM (FLT1; read-out: dTm MR21 (4)) was 5.4 °C, the ΔTm at 10 µM (GSK3B; read-out: dTm MR21 (4)) was 2.7 °C and the ΔTm at 10 µM (PIM1; read-out: dTm MR21 (4)) was 0.4 °C. It also gave a ΔTm at 10 µM (MST1) of 1.9 °C, a ΔTm at 10 µM (MST2) of 2.2 °C and a ΔTm at 10 µM (MST4) of 2.6 °C.

Compound `CNc1ncc2cc(-c3cc(F)ccc3F)c(=O)n(CCCCN)c2n1` [compound 5, 8-(4-Aminobutyl)-6-(2,5-difluorophenyl)-2-(methylamino)pyrido[2,3-d]pyrimidin-7(8H)-one] has an IC50 (EpHB1; intact mode, HEK293T, 37 °C, 2 h, tracer displacement) of 632 ± 10 nM, an IC50 (SIK2) of 89 ± 2 nM and an IC50 (SIK3) of 18 ± 2 nM. It also gave an IC50 (SIK1) of 72 ± 11 nM, a ΔTm at 10 µM (BRD4; read-out: dTm MR22 (5)) of -2.8 °C and a ΔTm at 10 µM (CLK1; read-out: dTm MR22 (5)) of 0.4 °C. For the same compound, the ΔTm at 10 µM (FLT1; read-out: dTm MR22 (5)) was 4.6 °C, the ΔTm at 10 µM (GSK3B; read-out: dTm MR22 (5)) was 1.6 °C and the ΔTm at 10 µM (PIM1; read-out: dTm MR22 (5)) was 1.1 °C. It also gave a ΔTm at 10 µM (MST1) of 0.9 °C, a ΔTm at 10 µM (MST2) of 0.6 °C and a ΔTm at 10 µM (MST4) of 0.9 °C.

`CNc1ncc2cc(-c3cc(Br)ccc3Cl)c(=O)n(CCCCN)c2n1` [compound 6, 8-(4-Aminobutyl)-6-(5-bromo-2-chlorophenyl)-2-(methylamino)pyrido[2,3-d]pyrimidin-7(8H)-one] gave an IC50 (SIK2) of 1400 ± 100 nM, an IC50 (SIK3) of 352 ± 11 nM and an IC50 (SIK1) of 239 ± 46 nM. The ΔTm at 10 µM (BRD4; read-out: dTm 6) was -0.1 °C, the ΔTm at 10 µM (CLK1; read-out: dTm 6) was 0.2 °C and the ΔTm at 10 µM (FLT1; read-out: dTm 6) was 6 °C. The ΔTm at 10 µM (GSK3B; read-out: dTm 6) was 1 °C, the ΔTm at 10 µM (PIM1; read-out: dTm 6) was 1.2 °C and the ΔTm at 10 µM (MST1) was 1.9 °C. It also gave a ΔTm at 10 µM (MST2) of 2.5 °C and a ΔTm at 10 µM (MST4) of 2.2 °C.

With `CNc1ncc2cc(-c3cc(Br)ccc3Cl)c(=O)n(C[C@H]3OC[C@H](N)CO3)c2n1` [compound 7, 8-(((2r,5r)-5-Amino-1,3-dioxan-2-yl)methyl)-6-(5-bromo-2-chlorophenyl)-2-(methylamino)pyrido[2,3-d]pyrimidin-7(8H)-one] the IC50 (SIK2) was 4400 ± 100 nM, the IC50 (SIK3) was 1000 ± 300 nM and the IC50 (SIK1) was 2400 ± 1100 nM. For the same compound, the ΔTm at 10 µM (BRD4; read-out: dTm 7) was 0.9 °C, the ΔTm at 10 µM (CLK1; read-out: dTm 7) was 0.4 °C and the ΔTm at 10 µM (FLT1; read-out: dTm 7) was 5.4 °C. For the same compound, the ΔTm at 10 µM (GSK3B; read-out: dTm 7) was 0.3 °C, the ΔTm at 10 µM (PIM1; read-out: dTm 7) was 0.6 °C and the ΔTm at 10 µM (MST1) was 1.7 °C. The ΔTm at 10 µM (MST2) was 1.5 °C and the ΔTm at 10 µM (MST4) was 0.6 °C.

With `CNc1ncc2cc(-c3cc(Cl)ccc3Cl)c(=O)n(CCCCN)c2n1` [compound 8, 8-(4-Aminobutyl)-6-(2,5-dichlorophenyl)-2-(methylamino)pyrido[2,3-d]pyrimidin-7(8H)-one] the IC50 (EpHB1) was 302 ± 26 nM, the IC50 (SIK2) was 665 ± 40 nM and the IC50 (SIK3) was 113 ± 95 nM. The IC50 (SIK1) was 277 ± 123 nM, the ΔTm at 10 µM (MST1) was 1.6 °C and the ΔTm at 10 µM (MST2) was 1.4 °C. It also gave a ΔTm at 10 µM (MST4) of 2 °C.

`CNc1ncc2cc(-c3cc(C(F)(F)F)ccc3Cl)c(=O)n(CCCCN)c2n1` [compound 9, 8-(4-Aminobutyl)-6-(2-chloro-5-(trifluoromethyl)phenyl)-2-(methylamino)pyrido[2,3-d]pyrimidin-7(8H)-one] showed an IC50 (SIK2) of 6100 ± 100 nM, an IC50 (SIK3) of 2500 ± 100 nM and an IC50 (SIK1) of 1000 ± 400 nM. The ΔTm at 10 µM (MST1) was 0.9 °C, the ΔTm at 10 µM (MST2) was 0.8 °C and the ΔTm at 10 µM (MST4) was 0.4 °C.

For `CNc1ncc2cc(-c3cc(Cl)ccc3Br)c(=O)n(CCCCN)c2n1` [compound 10, 8-(4-Aminobutyl)-6-(2-bromo-5-chlorophenyl)-2-(methylamino)pyrido[2,3-d]pyrimidin-7(8H)-one], the IC50 (SIK2) was 1100 ± 100 nM, the IC50 (SIK3) was 290 ± 42 nM and the IC50 (SIK1) was 228 ± 142 nM. For the same compound, the ΔTm at 10 µM (MST1) was 1.5 °C, the ΔTm at 10 µM (MST2) was 1.4 °C and the ΔTm at 10 µM (MST4) was 1.8 °C.

For `CNc1ncc2cc(-c3cc(Br)ccc3Br)c(=O)n(CCCCN)c2n1` [compound 11, 8-(4-Aminobutyl)-6-(2,5-dibromophenyl)-2-(methylamino)pyrido[2,3-d]pyrimidin-7(8H)-one], the IC50 (SIK2) was 2700 ± 100 nM, the IC50 (SIK3) was 1200 ± 100 nM and the IC50 (SIK1) was 429 ± 117 nM. It also gave a ΔTm at 10 µM (MST1) of 1.6 °C, a ΔTm at 10 µM (MST2) of 1.4 °C and a ΔTm at 10 µM (MST4) of 1.5 °C.

`CNc1ncc2cc(-c3cc(F)c(-c4cccc(C)n4)cc3F)c(=O)n(CCCCN)c2n1` [compound 12, 8-(4-Aminobutyl)-6-(2,5-difluoro-4-(6-methylpyridin-2-yl)phenyl)-2-(methylamino)pyrido[2,3-d]pyrimidin-7(8H)-one] showed an IC50 (SIK2) of 31 ± 1 nM, an IC50 (SIK3) of 4 ± 0.1 nM and an IC50 (SIK1) of 6 ± 2 nM. It also gave a ΔTm at 10 µM (MST1) of 2.8 °C, a ΔTm at 10 µM (MST2) of 5.2 °C and a ΔTm at 10 µM (MST4) of 7.6 °C.
